pEC50: −log10 of the molar value. Where two headings read alike, the source gives them in different places.
What was measured:
primary human T-cells [1] = experiment: Proliferation assay after 5 days (CellTiter-Glo, CD3 stimulation; PBS counter screen); format: cell-based; details: Homo sapiens, T-cell, 120 h, CD3 stimulation; for Emax: 5 days, normalized to reference compound A1 as stimulator control = 100%, DMSO neutral control, read-out: Emax proliferation (% activation); for pEC50: primary human T-cells, CellTiter-Glo after 5 days, EC50 of fitted sigmoidal curve, read-out: Tcell Proliferation CD3 EC50
Outline: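 Read-out: CellTiter-Glo 2.0 luminescence (ATP ∝ cell number) at day 5 after compound addition. Compounds activating unstimulated cells or reducing viability flagged.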

primary human T-cells [2] = test system: primary human T-cells

| pEC50 (primary human T-cells [2]) | Compound | Emax (primary human T-cells [1]) | pEC50 (primary human T-cells [1]) |
| --- | --- | --- | --- |
| 5.13 | NC1CC2(C1)CC(c1nnc(-c3cc4c(cc3F)S(=O)(=O)C[C@H](N)C(=O)N4Cc3ccc(Cl)cc3)o1)C2 (stereo partly drawn) [Example 116, (3R)-3-amino-7-[5-(2-aminospiro[3.3]heptan-6-yl)-1,3,4-oxadiazol-2-yl]-5-[(4-chlorophenyl)methyl]-8-fluoro-1,1-dioxo-2,3-dihydro-1λ^6,5-benzothiazepin-4-one] | 84% | 5.33 |
| 5.45 | N[C@H]1CS(=O)(=O)c2cc(F)c(-c3nnc(C(=O)N4CCC(F)(F)C4)o3)cc2N(Cc2ccc(Cl)cc2)C1=O [Example 117, (3R)-3-amino-5-[(4-chlorophenyl)methyl]-7-[5-(3,3-difluoropyrrolidine-1-carbonyl)-1,3,4-oxadiazol-2-yl]-8-fluoro-1,1-dioxo-2,3-dihydro-1λ^6,5-benzothiazepin-4-one] | 68% | 5.30 |
| 6.64 | N#CC1(c2nnc(-c3cc4c(cc3F)S(=O)(=O)C[C@H](N)C(=O)N4Cc3ccc(Cl)cc3)o2)CC1 [Example 118, 1-[5-[(3R)-3-amino-5-[(4-chlorophenyl)methyl]-8-fluoro-1,1,4-trioxo-2,3-dihydro-1λ^6,5-benzothiazepin-7-yl]-1,3,4-oxadiazol-2-yl]cyclopropanecarbonitrile] | 99% | 6.17 |
| 5.92 | CC(C)(O)c1nnc(-c2cc3c(cc2F)S(=O)(=O)C[C@H](N)C(=O)N3Cc2ccc(Cl)cc2)o1 [Example 119, (3R)-3-amino-5-[(4-chlorophenyl)methyl]-8-fluoro-7-[5-(1-hydroxy-1-methyl-ethyl)-1,3,4-oxadiazol-2-yl]-1,1-dioxo-2,3-dihydro-1λ^6,5-benzothiazepin-4-one] | 97% | 6.14 |
| 6.59 | COC(=O)N1CC2(c3nnc(-c4cc5c(cc4F)S(=O)(=O)C[C@H](N)C(=O)N5Cc4ccc(Cl)cc4)o3)CC1CO2 (stereo partly drawn) [Example 120, methyl 1-[5-[(3R)-3-amino-5-[(4-chlorophenyl)methyl]-8-fluoro-1,1,4-trioxo-2,3-dihydro-1λ^6,5-benzothiazepin-7-yl]-1,3,4-oxadiazol-2-yl]-2-oxa-5-azabicyclo[2.2.1]heptane-5-carboxylate] | 96% | 6.89 |
| 5.20 | N[C@H]1CS(=O)(=O)c2cc(F)c(-c3nnc(C45CNCCC4C5)o3)cc2N(Cc2ccc(Cl)cc2)C1=O (stereo partly drawn) [Example 121, (3R)-3-amino-7-[5-(3-azabicyclo[4.1.0]heptan-1-yl)-1,3,4-oxadiazol-2-yl]-5-[(4-chlorophenyl)methyl]-8-fluoro-1,1-dioxo-2,3-dihydro-1λ^6,5-benzothiazepin-4-one] | 72% | 5.32 |
| 5.84 | CN(C)C(=O)C(C)(C)c1nnc(-c2cc3c(cc2F)S(=O)(=O)C[C@H](N)C(=O)N3Cc2ccc(Cl)cc2)o1 [Example 125, N,N,2-trimethyl-2-[5-[(3R)-3-amino-5-[(4-chlorophenyl)methyl]-8-fluoro-1,1,4-trioxo-2,3-dihydro-1λ^6,5-benzothiazepin-7-yl]-1,3,4-oxadiazol-2-yl]propanamide] | 112% | 6.23 |
| 7.20 | N[C@H]1CS(=O)(=O)c2cc(F)c(-c3nnc(C4(C(F)(F)F)CC4)o3)cc2N(Cc2ccc(Cl)cc2)C1=O [Example 126, (3R)-3-amino-5-[(4-chlorophenyl)methyl]-8-fluoro-1,1-dioxo-7-[5-[1-(trifluoromethyl)cyclopropyl]-1,3,4-oxadiazol-2-yl]-2,3-dihydro-1λ^6,5-benzothiazepin-4-one] | 135% | 6.95 |
| 6.64 | CC(N)(c1nnc(-c2cc3c(cc2F)S(=O)(=O)C[C@H](N)C(=O)N3Cc2ccc(Cl)cc2)o1)C(F)(F)F (stereo partly drawn) [Example 127, (3R)-3-amino-7-[5-(1-amino-2,2,2-trifluoro-1-methyl-ethyl)-1,3,4-oxadiazol-2-yl]-5-[(4-chlorophenyl)methyl]-8-fluoro-1,1-dioxo-2,3-dihydro-1λ^6,5-benzothiazepin-4-one] | 110% | 6.74 |
| 5.91 | CC(C)(c1nnc(-c2cc3c(cc2F)S(=O)(=O)C[C@H](N)C(=O)N3Cc2ccc(Cl)cc2)o1)N1CCCC1 [Example 128, (3R)-3-amino-5-[(4-chlorophenyl)methyl]-8-fluoro-7-[5-(1-methyl-1-pyrrolidin-1-yl-ethyl)-1,3,4-oxadiazol-2-yl]-1,1-dioxo-2,3-dihydro-1λ^6,5-benzothiazepin-4-one] | 99% | 6.27 |
| 5.71 | COC(=O)N1CCC(OC)(c2nnc(-c3cc4c(cc3F)S(=O)(=O)C[C@H](N)C(=O)N4Cc3ccc(Cl)cc3)o2)CC1 [Example 132, methyl 4-methoxy-4-[5-[(3R)-3-amino-5-[(4-chlorophenyl)methyl]-8-fluoro-1,1,4-trioxo-2,3-dihydro-1λ^6,5-benzothiazepin-7-yl]-1,3,4-oxadiazol-2-yl]-piperidine-1-carboxylate] | 97% | 6.82 |
| 5.46 | CC(C)(CN1CCS(=O)(=O)CC1)c1nnc(-c2cc3c(cc2F)S(=O)(=O)C[C@H](N)C(=O)N3Cc2ccc(Cl)cc2)o1 [Example 138, (3R)-3-amino-5-[(4-chlorophenyl)methyl]-7-[5-[2-(1,1-dioxo-1,4-thiazinan-4-yl)-1,1-dimethyl-ethyl]-1,3,4-oxadiazol-2-yl]-8-fluoro-1,1-dioxo-2,3-dihydro-1λ^6,5-benzothiazepin-4-one] | 120% | 5.82 |

Further lines, the molecule ahead of its results:

| Compound | pEC50 (primary human T-cells [2]) | Emax (primary human T-cells [1]) | pEC50 (primary human T-cells [1]) |
| --- | --- | --- | --- |
| CC(C)(C)c1nnc(-c2ccc3c(c2)N(Cc2ccc(S(=O)(=O)C(F)(F)F)cc2)C(=O)[C@@H](N)CS3(=O)=O)o1 [Example 123, (3R)-3-amino-7-(5-tert-butyl-1,3,4-oxadiazol-2-yl)-1,1-dioxo-5-[[4-(trifluoromethylsulfonyl)phenyl]methyl]-2,3-dihydro-1λ^6,5-benzothiazepin-4-one] | 5.78 | 82% | < 5.56 |
| Cc1ccc(-c2nnc(-c3cc4c(cc3F)S(=O)(=O)C[C@H](N)C(=O)N4Cc3ccc(Cl)cc3)o2)nc1 [Example 129, (3R)-3-amino-5-[(4-chlorophenyl)methyl]-8-fluoro-7-[5-(5-methyl-2-pyridyl)-1,3,4-oxadiazol-2-yl]-1,1-dioxo-2,3-dihydro-1λ^6,5-benzothiazepin-4-one] | 5.72 | 106% | 5.85 |
| Cc1cc(C)c(-c2nnc(-c3cc4c(cc3F)S(=O)(=O)C[C@H](N)C(=O)N4Cc3ccc(Cl)cc3)o2)cn1 [Example 130, (3R)-3-amino-5-[(4-chlorophenyl)methyl]-7-[5-(4,6-dimethyl-3-pyridyl)-1,3,4-oxadiazol-2-yl]-8-fluoro-1,1-dioxo-2,3-dihydro-1λ^6,5-benzothiazepin-4-one] | 6.55 | 114% | 6.80 |
| Cc1nc(F)ccc1-c1nnc(-c2cc3c(cc2F)S(=O)(=O)C[C@H](N)C(=O)N3Cc2ccc(Cl)cc2)o1 [Example 131, (3R)-3-amino-5-[(4-chlorophenyl)methyl]-8-fluoro-7-[5-(6-fluoro-2-methyl-3-pyridyl)-1,3,4-oxadiazol-2-yl]-1,1-dioxo-2,3-dihydro-1λ^6,5-benzothiazepin-4-one] | 6.42 | 192% | 6.46 |
| Cc1ccc(-c2nnc(-c3cc4c(cc3F)S(=O)(=O)C[C@H](N)C(=O)N4Cc3ccc(Cl)cc3)o2)cn1 [Example 133, (3R)-3-amino-5-[(4-chlorophenyl)methyl]-8-fluoro-7-[5-(6-methyl-3-pyridyl)-1,3,4-oxadiazol-2-yl]-1,1-dioxo-2,3-dihydro-1λ^6,5-benzothiazepin-4-one] | 5.93 | 144% | 6.49 |
| N[C@H]1CS(=O)(=O)c2cc(F)c(-c3nnc(-c4ccc(F)nc4)o3)cc2N(Cc2ccc(Cl)cc2)C1=O [Example 134, (3R)-3-amino-5-[(4-chlorophenyl)methyl]-8-fluoro-7-[5-(6-fluoro-3-pyridyl)-1,3,4-oxadiazol-2-yl]-1,1-dioxo-2,3-dihydro-1λ^6,5-benzothiazepin-4-one] | 5.87 | 34% | < 5.00 |
| N[C@H]1CS(=O)(=O)c2cc(F)c(-c3nnc(-c4ccc(F)cn4)o3)cc2N(Cc2ccc(Cl)cc2)C1=O [Example 135, (3R)-3-amino-5-[(4-chlorophenyl)methyl]-8-fluoro-7-[5-(5-fluoro-2-pyridyl)-1,3,4-oxadiazol-2-yl]-1,1-dioxo-2,3-dihydro-1λ^6,5-benzothiazepin-4-one] | 5.54 | 93% | 5.98 |
| CC(C)(c1nnc(-c2cc3c(cc2F)S(=O)(=O)C[C@H](N)C(=O)N3Cc2ccc(Cl)cc2)o1)C(N)C(F)(F)F (stereo partly drawn) [Example 136, (3R)-3-amino-7-[5-(2-amino-3,3,3-trifluoro-1,1-dimethyl-propyl)-1,3,4-oxadiazol-2-yl]-5-[(4-chlorophenyl)methyl]-8-fluoro-1,1-dioxo-2,3-dihydro-1λ^6,5-benzothiazepin-4-one] | 6.73 | 99% | 6.94 |
| COC(=O)NC(C(F)(F)F)C(C)(C)c1nnc(-c2cc3c(cc2F)S(=O)(=O)C[C@H](N)C(=O)N3Cc2ccc(Cl)cc2)o1 (stereo partly drawn) [Example 137, methyl N-[2-methyl-2-[5-[(3R)-3-amino-5-[(4-chlorophenyl)methyl]-8-fluoro-1,1,4-trioxo-2,3-dihydro-1λ^6,5-benzothiazepin-7-yl]-1,3,4-oxadiazol-2-yl]-1-(trifluoromethyl)propyl]carbamate] | 6.31 | 90% | 6.51 |
